Data taken from patent US20090075937A1, “LHRH ANTAGONISTS FOR THE TREATMENT OF LOWER URINARY TRACT SYMPTOMS” (AETERNA ZENTARIS GmbH, priority 2007, published 2009).

Experiments:
study subjects [1] = experiment: Peroral treatment of study subjects with tetrahydrocarbazole compounds: nocturia frequency, urgency to urinate, frequency of emptying (Examples 4-9); type: in vivo, human; conditions: 50 to 150 mg perorally daily as a single dose, schemes of 6 weeks to 6 months
study subjects [2] = experiment: Peroral treatment of study subjects with tetrahydrocarbazole compounds: chemical (hormonal) castration (Examples 4-9); type: in vivo, human; conditions: 50 to 150 mg perorally daily as a single dose, schemes of 6 weeks to 6 months
Method: In the course of the present invention, the terms “hormone” and “hormonal” within for instance the terms “hormone castration”, “chemical (hormonal) castration” or “hormone withdrawal symptoms” refer to follicle stimulating hormone (FSH), luteinizing hormone (LH) and/or testosterone. Preferably, chemical (hormonal) castration is a testosterone castration and refers to a testosterone blood level of equal or below 1.2 ng/mL, preferably 0.5 ng/mL.
Study subjects are treated with compound (76) with the following doses according to the following administration schemes: • in a 3 month trial, 75 mg or 150 mg compound (76) administered perorally daily as a single dose on day 2-7 of the menstrual cycle • in a 3 months trial, 75 mg, 100 mg or 150 mg compound (76) administered perorally daily as a single dose on day 2-7 of the menstrual cycle followed by a 3 months treatment-free period • in a 6 months trial, 75 mg or 150 mg compound (76) administered perorally daily as a single dose • 50 mg or 150 mg per compound (76) administered daily as a single dose over 42 days (6 weeks)
Study subjects are treated with compound (68) with the following doses according to the following administration schemes: • in a 3 month trial, 75 mg or 150 mg compound (68) administered perorally daily as a single dose on day 2-7 of the menstrual cycle • in a 3 months trial, 75 mg, 100 mg or 150 mg compound (68) administered perorally daily as a single dose on day 2-7 of the menstrual cycle followed by a 3 months treatment-free period • in a 6 months trial, 75 mg or 150 mg compound (68) administered perorally daily as a single dose • 50 mg or 150 mg per compound (68) administered daily as a single dose over 42 days (6 weeks)
Study subjects are treated with compound 36 with the following doses according to the following administration schemes: • in a 3 month trial, 75 mg or 150 mg compound 36 administered perorally daily as a single dose on day 2-7 of the menstrual cycle • in a 3 months trial, 75 mg, 100 mg or 150 mg compound 36 administered perorally daily as a single dose on day 2-7 of the menstrual cycle followed by a 3 months treatment-free period • in a 6 months trial, 75 mg or 150 mg compound 36 administered perorally daily as a single dose • 50 mg or 150 mg per compound 36 administered daily as a single dose over 42 days (6 weeks)
Study subjects are treated with compound 37 with the following doses according to the following administration schemes: • in a 3 month trial, 75 mg or 150 mg compound 37 administered perorally daily as a single dose on day 2-7 of the menstrual cycle • in a 3 months trial, 75 mg, 100 mg or 150 mg compound 37 administered perorally daily as a single dose on day 2-7 of the menstrual cycle followed by a 3 months treatment-free period • in a 6 months trial, 75 mg or 150 mg compound 37 administered perorally daily as a single dose • 50 mg or 150 mg per compound 37 administered daily as a single dose over 42 days (6 weeks)
Study subjects are treated with compound 52 with the following doses according to the following administration schemes: • in a 3 month trial, 75 mg or 150 mg compound 52 administered perorally daily as a single dose on day 2-7 of the menstrual cycle • in a 3 months trial, 75 mg, 100 mg or 150 mg compound 52 administered perorally daily as a single dose on day 2-7 of the menstrual cycle followed by a 3 months treatment-free period • in a 6 months trial, 75 mg or 150 mg compound 52 administered perorally daily as a single dose • 50 mg or 150 mg per compound 52 administered daily as a single dose over 42 days (6 weeks)

Row | SMILES | nocturia frequency, urgency to urinate and/or frequency of emptying compared to placebo (study subjects [1]) | chemical (hormonal) castration (study subjects [2])
1 | CCC(C)[C@H](NC(=O)Cc1ccccc1F)C(=O)N[C@]1(C(=O)N[C@H](C(=S)NCC2CCOCC2)C(C)CC)CCc2[nH]c3c(C(F)(F)F)cccc3c2C1 (stereo partly drawn) [Compound 52, (R)-3-{(S)-2-[2-(2-Fluoro-phenyl)-acetylamino]-3-methyl-pentanoylamino}-8-trifluoromethyl-2,3,4,9-tetrahydro-1H-carbazole-3-carboxylic acid {(S)-2-methyl-1-[K(tetrahydro-pyran-4-ylmethyl)-thiocarbamoyl]-butyl}-amide] | decrease | successfully prevented
2 | CCC(C)[C@H](NC(=O)Cc1ccccc1F)C(=O)N[C@]1(C(=O)N[C@H](C(=O)NNc2ccccc2)C(C)CC)CCc2[nH]c3c(C(F)(F)F)cccc3c2C1 (stereo partly drawn) [Compound 144, (R)-3-{(S)-2-[2-(2-Fluoro-phenyl)-acetylamino]-3-methyl-pentanoylamino}-8-trifluoromethyl-2,3,4,9-tetrahydro-1H-carbazole-3-carboxylic acid [(S)-2-methyl-1-(N′-phenyl-hydrazinocarbonyl)-butyl]-amide] | decrease | successfully prevented
3 | CCC(C)[C@H](NC(=O)Cc1ccccc1F)C(=O)N[C@]1(C(=O)N[C@H](C(N)=S)C(C)CC)CCc2[nH]c3c(Cl)cc(F)cc3c2C1 (stereo partly drawn) [compound (68), (R)-8-chloro-6-fluoro-3-{(S)-2-[2-(2-fluorophenyl)acetylamino]-3-methyl-pentanoylamino}-2,3,4,9-tetrahydro-1H-carbazole-3-carboxylic acid ((S)-2-methyl-1-thiocarbamoylbutyl)amide] | decrease | successfully prevented
4 | CCC(C)[C@H](NC(=O)Cc1ccccc1F)C(=O)N[C@]1(C(=O)N[C@H](C(N)=S)C(C)CC)CCc2[nH]c3c(C(F)(F)F)cccc3c2C1 (stereo partly drawn) [compound (76), (R)-3-{(S)-2-[2-(2-fluorophenyl)acetylamino]-3-methyl-pentanoylamino}-8-trifluoromethyl-2,3,4,9-tetrahydro-1H-carbazole-3-carboxylic acid ((S)-2-methyl-1-thiocarbamoylbutyl)amide] | decrease | successfully prevented
